Consider eleven molecules from US20260306524A1, “Guanidinylated Amphiphilic Tobramycin Derivates and B-Lactam/B-Lactamase Inhibitor Combinations for Treatment of Pseudomonas Aeruginosa Infections” (University of Manitoba, priority 2023, published 2026).

Where two headings read alike, the source gives them in different places. Where only a bound is given, the exact number is not on record here.

Series [1] deals with HEK293 cells. As to the kind of experiment: Cell viability (cytotoxicity) assay, HEK293. The conditions noted are these: for cell viability compared to non-guanidinylated counterpart: HEK293, higher concentrations; for cell viability compared to 1: HEK293, up to 600 μM. The class given is cell-based, human. As for the experimental part: (§1) As an initial screening of the toxicity, the cell viability of the tobramycin derivatives was assessed in human embryonic kidney (HEK) 293 cell lines. Polymyxin B was utilized as […] and by being a membrane permeabilizing amphiphile resembling the tobramycin derivatives.
(§2) The cytotoxicity assay was conducted as previously described (24, 30). HEK293 cells were cultured in flasks with Dulbecco's Modified Eagle's Medium (DMEM) supplemented with 10% fetal bovine serum. The cells were incubated at 5% CO2 in a humidified atmosphere at 37° C. 50 μL of media containing approximately 8000 cells were added to designated wells in a 96-well plate. The wells containing only media with no cells served as blanks. The plate was incubated for 24 h. A volume of 50 μL of doubled the final desired concentrations of the agent were subsequently added to the experimental and blank wells. After 48 h incubation, PrestoBlue reagent from Invitrogen (United States) was added to a final concentration of 10% (v/v) and plates were incubated for an additional 1 hour at 5% CO2. Fluorescence was measured with excitation and emission wavelengths of 560 and 590 nm, respectively, using the Molecular Devices (United States) SpectraMax M2 plate reader. Values from the blank wells were subtracted from the corresponding wells with cells. The cell viability relative to the controls with vehicle was calculated. The plots indicate the mean±standard deviation of two experiments with five samples each.

Series [2] in a line: Cell viability (cytotoxicity) assay, HEK293. The class given is cell-based, human. Conditions: human, hek293 cells. As for the experimental part: as §1, §2
Series [3] relates to P. aeruginosa PAO1. As to the kind of experiment: Checkerboard synergy with β-lactam antibiotics, PAO1. In kind it is cell-based, Pseudomonas aeruginosa. Conditions: for active concentration: equivalent to 6 μM. Here is the method: After establishing the MIC of the tobramycin derivatives, the ability of these adjuvants to synergize with BL antibiotics was investigated against P. aeruginosa PAO1. The checkerboard assays were conducted as previously described and in accordance with the CLSI guidelines (37). Synergy was defined by at least a 4-fold reduction in the MICs of both adjuvant and antibiotic. The panel of antibiotics are comprised of commonly used antipseudomonal agents and represent the different BL subclasses—cephalosporin (ceftazidime), monobactam (aztreonam), penicillin (piperacillin) and carbapenems (imipenem and meropenem) (12).
The checkerboard assay was conducted as previously described (61). The bacterial solution was prepared as described in the broth microdilution method. The antibiotic of interest was serially diluted two-fold along the x-axis, and the adjuvant is serially diluted two-fold along the y-axis in a 96-well plate. Equal volumes of bacterial solution were added to the designated wells. The first row and columns are used to verify the MIC of the antibiotic and adjuvant, respectively. The well containing only broth served as negative control, while the well containing the broth and bacterial solution served as positive control. The plate was then incubated at 37° C. for 18 hours. After incubation, Molecular Devices (United States) Emax Plus microplate reader was used to measure the OD at a wavelength of 590 nm. Synergy was determined by at least a 4-fold reduction of the MIC of both agents.

The test system of series [4] is P. aeruginosa PAO1. The experiment in a line: Potentiation of rifampicin, PAO1. The class given is cell-based, Pseudomonas aeruginosa. The source says:
Another evidence of OM permeabilization is the ability of the guanidinylated amphiphilic tobramycin derivatives to synergize with membrane-impermeable antibiotics such as rifampicin. 5 and 8 potentiated rifampicin by 16- and 64-fold, respectively, against PAO1. Rifampicin has limited capacity in crossing the OM of Gram-negative bacteria, and is restricted to treating infections caused by Mycobacteria and Gram-positive cocci (48). Unlike the BL antibiotics that permeate the OM through a porin-mediated uptake, the large molecular weight and hydrophobicity of rifampicin make it unable to enter the narrow porins, and rely on slow passive diffusion to traverse the lipid bilayer (49). Therefore, the augmented potency of rifampicin against P. aeruginosa is linked to its increased intracellular concentration through OM destabilization.
(§3) The checkerboard assay was conducted as previously described (61). The bacterial solution was prepared as described in the broth microdilution method. The antibiotic of interest was serially diluted two-fold along the x-axis, and the adjuvant is serially diluted two-fold along the y-axis in a 96-well plate. Equal volumes of bacterial solution were added to the designated wells. […] After incubation, Molecular Devices (United States) Emax Plus microplate reader was used to measure the OD at a wavelength of 590 nm. […]

The test system of series [5] is MDR clinical isolates of P. aeruginosa. The experiment in a line: MIC against MDR clinical isolates. Conditions: Pseudomonas aeruginosa, 18 h; all MDR strains tested, alone. The class given is cell-based. Here is the method: The synergism of the guanidinylated amphiphilic tobramycin derivatives with ceftazidime, aztreonam and piperacillin against PAO1 prompted further investigation against MDR clinical isolates of P. aeruginosa. Prior to the checkerboard assays, the MICs of 5 and 8 were determined to be >128 μg/mL against all strains tested.
All antibiotics were purchased from commercial sources. Bacterial isolates were obtained from the American Type Culture Collection (ATCC), and from the Canadian National Intensive Care Unit (CAN-ICU) (59) and Canadian Ward (CANWARD) surveillance studies (60). CAN-ICU and CANWARD clinical isolates were collected from patients with presumed infectious diseases admitted in participating Canadian medical centers either to the intensive care unit or medical wards. Prior to microbiological testing, bacterial cultures were grown overnight in lysogeny broth (LB) at 37° C., shaking at 250 rpm.
(§4) The broth microdilution assay was performed in accordance with standard protocols as previously described (61). […] After incubation, Molecular Devices (United States) Emax Plus microplate reader was used to measure the optical density (OD) at a wavelength of 590 nm to confirm the turbidity. The minimum inhibitory concentration (MIC) was determined as the lowest concentration that inhibited visible bacterial growth.

In series [6] the test system is PA 107092. As to the kind of experiment: Time-kill kinetics assay, PA 107092. The class given is cell-based, Pseudomonas aeruginosa. As for the experimental part:
(§5) To elucidate the mechanistic killing of the triple combination studies, the time-kill kinetics assay was performed as previously described (32). […] 8 μg/mL of ceftazidime and 2 μg/mL avibactam were used to reflect the clinically used 4:1 ratio.
(§6) Time-kill curve analyses were performed as previously described (32). An inoculum of the culture was then diluted in 0.85% saline solution to attain 0.5 McFarland turbidity. The inoculum was further diluted in lysogeny broth (LB) containing different antibiotic and adjuvant concentrations. The culture tubes were incubated at 37° C., shaking at 250 rpm. At specific time intervals, an aliquot was taken from each tube, serially diluted in sterile phosphate-buffered saline (PBS) and plated on LB agar plates. The plates were incubated at 37° C. overnight and the bacterial colonies were counted the subsequent day. The bactericidal or bacteriostatic activity was determined based on the decrease in CFU over the designated time period. Bactericidal activity corresponded to ≥3 log reduction in CFU/mL, while bacteriostatic activity corresponded to <3 log reduction in CFU/mL.

Series [7] relates to β-lactamase harboring P. aeruginosa isolates. The experiment in a line: Checkerboard dual and triple combinations, β-lactamase harboring isolates. The class given is cell-based, Pseudomonas aeruginosa. Conditions: checkerboard assays.
Source text: (§7) Since the main resistance mechanism against BL antibiotics is the hydrolysis by β-lactamase enzymes (46), it is imperative that the synergy evaluation is extended to P. aeruginosa strains containing these enzymes. Based on the results of the checkerboard assays against the MDR strains, the synergy of 5 and 8 with ceftazidime and aztreonam was further assessed against β-lactamase harboring P. aeruginosa isolates. These strains are characterized by their increased susceptibility to ceftazidime with the addition of avibactam. In addition, a triple combination therapy consisting of the tobramycin derivative, either BL antibiotic and avibactam was also investigated.
as §3, with “wells. The first row and columns are used to verify the MIC of the antibiotic and adjuvant, respectively.” for “wells.”

The subject of series [8] is PA 86052. The experiment in a line: Time-kill kinetics assay, PA 86052. In kind it is cell-based, Pseudomonas aeruginosa. As for the experimental part: as §5, §6
Series [9] concerns β-lactamase harboring P. aeruginosa isolates. As to the kind of experiment: MIC against β-lactamase harboring isolates. The conditions noted are these: Pseudomonas aeruginosa, 18 h. In kind it is cell-based.
Source text: as §7
as §4, with “(61). An inoculum of the culture was diluted in 0.85% saline solution to attain 0.5 McFarland turbidity. The inoculum was further diluted in Mueller-Hinton broth (MHB) for inoculation to a final concentration of 5×10^5 colony forming units/mL (CFU/mL). The agents were serially diluted two-fold in CA-MHB in a 96-well plate.” for “(61).”

With `N=C(N)NC[C@H]1O[C@H](O[C@H]2[C@H](O)[C@@H](O[C@H]3O[C@H](CO)[C@@H](O)[C@H](NC(=N)N)[C@H]3O)[C@H](NC(=N)N)C[C@@H]2NC(=N)N)[C@H](NC(=N)N)C[C@@H]1O` [Compound 2, guanidinylated tobramycin, reference compound], the “cell viability compared to non-guanidinylated counterpart” value in series [1] is on record as “slight decrease in the cell viability”.
With `CCCCCCCCCCCCOC1C(OC2OC(CN)C(O)CC2N)C(N)CC(N)C1OC1OC(CO)C(O)C(N)C1O` (stereo not shown) [Compound 3], in [1] (HEK293, at 600 μM, relative to tobramycin), the cytotoxicity entry is given as “highly toxic relative to tobramycin, causing cell death at 600 μM”.
By viability is commonly meant a read-out of living cells in per cent, often relative to untreated cells. As for `CCCCCCCCOC1C(OC2OC(CN)C(O)CC2N)C(N)CC(N)C1OC1OC(CO)C(O)C(N)C1O` (stereo not shown) [Compound 4, 5-O-(Octyl)-tobramycin], in series [2] (HEK293, up to 600 μM), the viability at 48 h, 600 µM was in the range of 86 to 101%. For the same molecule, the “cell viability compared to 1” value in series [1] was “comparable to 1”.
For orientation: MIC means the lowest concentration found to suppress growth. Turning to `CCCCCCCCOC1C(OC2OC(CNC(=N)N)C(O)CC2NC(=N)N)C(NC(=N)N)CC(NC(=N)N)C1OC1OC(CO)C(O)C(NC(=N)N)C1O` (stereo not shown) [Compound 5, 5-O-(Octyl)-guanidinotobramycin], the viability at 48 h, 600 µM in series [2] (HEK293, 600 μM) stood at 63.8%. Besides, the “cytotoxicity compared to PMB” value in [1] (HEK293, 600 μM) was “comparable toxicity”. For the same molecule, the active concentration in series [3] is ~ 8 μg/mL. In addition, the “fold potentiation of rifampicin” value in [4] is reported as 16 fold. Also, the MIC in series [5] was > 128 mg/L.
Broadly, the cell viability is the share of living cells, or the viability signal relative to a control. A lower cell viability goes with a greater loss of cells. Regarding `NCCCCCCCCOC1C(OC2OC(CN)C(O)CC2N)C(N)CC(N)C1OC1OC(CO)C(O)C(N)C1O` (stereo not shown) [Compound 6, 5-O-(8-Aminooctyl)-tobramycin], in [1] (HEK293, 600 μM), the “cell viability at 600 μM compared to 4” value is reported as “lower in comparison to 4”. For the same molecule, in series [3] (PAO1, 8 μg/mL of adjuvant), the “fold potentiation of ceftazidime” value turned out to be 4 fold.
With `NC[C@H]1O[C@H](O[C@H]2[C@H](OCc3ccc(-c4ccccc4)cc3)[C@@H](O[C@H]3O[C@H](CO)[C@@H](O)[C@H](N)[C@H]3O)[C@H](N)C[C@@H]2N)[C@H](N)C[C@@H]1O` [Compound 7, 5-O-(4-Methylbiphenyl)-tobramycin], in series [2] (HEK293, up to 600 μM), the viability at 48 h, 600 µM lay in the range of 86 to 101%. Further, the “cell viability compared to 1” value in series [1] is “comparable to 1”.
For `N=C(N)NC[C@H]1O[C@H](O[C@H]2[C@H](OCc3ccc(-c4ccccc4)cc3)[C@@H](O[C@H]3O[C@H](CO)[C@@H](O)[C@H](NC(=N)N)[C@H]3O)[C@H](NC(=N)N)C[C@@H]2NC(=N)N)[C@H](NC(=N)N)C[C@@H]1O` [Compound 8, 5-O-(4-Methylbiphenyl)-guanidinotobramycin], the “log reduction in CFU/mL, triple combination” value is 3 log in series [6] (8 μg/mL of 8, ceftazidime 8 μg/mL, avibactam 2 μg/mL, at 4 hours) and > 3 log in [8] (8 μg/mL of 8, ceftazidime 8 μg/mL, avibactam 2 μg/mL, within 8 hours). Also, in [7], the “lowest concentration wherein synergy was observed” value was found to be 8 µg/mL. Also, the viability at 48 h, 600 µM in [2] (HEK293, 600 μM) is 79.8%. Moreover, in series [2] (HEK293, active concentration 8 μg/mL, read-out: non-cytotoxic concentration (600 μM, 848.04 μg/mL) as multiple of active concentration), the selectivity ratio is ~106. The “cytotoxicity up to approximately 106 times the active concentration” value in series [1] (HEK293) was “non-cytotoxic”. In addition, the “cytotoxicity compared to PMB” value in series [1] (HEK293, 600 μM) is “reduced cytotoxicity than PMB”. In addition, the “cell viability compared to non-guanidinylated counterpart” value in series [1] is “slight decrease in the cell viability”. For the same molecule, in [3], the active concentration is ~ 8 μg/mL. Further, in series [8] (8 with ceftazidime/avibactam), the “time to bactericidal effect, triple combination” value was ≤ 8 h. In addition, the “fold potentiation of rifampicin” value in [4] stood at 64 fold. Besides, in series [5], the MIC is > 128 mg/L.
As for `COc1cccc2c1C(=O)c1c(O)c3c(c(O)c1C2=O)C[C@@](O)(C(=O)CO)C[C@@H]3O[C@H]1C[C@H](N)[C@H](O)[C@H](C)O1` [Doxorubicin, reference compound], in series [2] (HEK293, 125 μM), the viability at 48 h, 125 µM was determined as 0%.
On to `C[C@H]1[C@H](NC(=O)/C(=N\OC(C)(C)C(=O)O)c2csc(N)n2)C(=O)N1S(=O)(=O)O` [aztreonam], for which the MIC in series [9] (five β-lactamase harboring strains, read-out: MIC of aztreonam monotherapy) was 32 to 128 mg/L.
In the case of `CC(C)(O/N=C(\C(=O)N[C@@H]1C(=O)N2C(C(=O)[O-])=C(C[n+]3ccccc3)CS[C@H]12)c1csc(N)n1)C(=O)O` [ceftazidime, reference compound], the “antibacterial effect over 24 h, monotherapy” value in series [6] (8 μg/mL ceftazidime) is reported as “ineffective”. In addition, the MIC in [9] (all five β-lactamase harboring strains, read-out: MIC of ceftazidime monotherapy) was in the range of 64 to 128 mg/L. Besides, the “antibacterial effect over 24 h” value in series [8] (8 μg/mL ceftazidime, 2 μg/mL avibactam) is recorded as “did not exhibit any antibacterial effect”.
Polymyxin B [PMB, reference compound] had a cell viability in [1] (HEK293, 600 μM, 2880 min) of 64.7%.
